Measurements published in patent US11932649B1, “5-(3-substituted phenyl)-pyrimido[4,5-d]pyrimidine-2,4,7(1H,3H,8H)-trione derivatives as anticancer agents” (KING FAISAL UNIVERISTY, priority 2023, dated 2024).
Read-outs that look alike come from different tables or passages of the source.

Assays:
[1] = test system: adeno carcinomic human alveolar basal epithelial cell line (A-549); experiment: Anticancer activity against human alveolar basal epithelial cell line A-549; type: cell-based
[2] = test system: human breast cancer cell line (MCF-7); experiment: Anticancer activity against human breast cancer cell line MCF-7; type: cell-based

| Compound | IC50 ([1]; A549) | IC50 ([2]; MCF7) | melting point | IC50 [1] | IC50 [2] |
| --- | --- | --- | --- | --- | --- |
| O=c1nc(-c2cccc(OCc3ccccc3)c2)c2c(=O)[nH]c(=O)[nH]c2[nH]1 [Compound 4a, 5-(3-(Benzyloxy)phenyl)pyrimido[4,5-d]pyrimidine-2,4,7(1H,3H,8H)-trione] | 518 nM | 663 nM | 186 to 188 °C |  |  |
| 5-(3-Hydroxy-4-methoxyphenyl)-1,3-dimethylpyrimido[4,5-d]pyrimidine-2,4,7(1H,3H,8H)-trione [Compound 4d] |  |  |  | 186 nM | 10 nM |
| COc1ccc(-c2nc(=O)[nH]c3[nH]c(=O)[nH]c(=O)c23)cc1O [Compound 4c, 5-(3-Hydroxy-4-methoxyphenyl)pyrimido[4,5-d]pyrimidine-2,4,7(1H,3H,8H)-trione] | 461 nM | 295 nM | 272 to 274 °C |  |  |
| O=c1nc(-c2ccc(OCc3ccccc3)cc2)c2c(=O)[nH]c(=O)[nH]c2[nH]1 [Compound 4b, 5-(4-(Benzyloxy)phenyl)pyrimido[4,5-d]pyrimidine-2,4,7(1H,3H,8H)-trione] | 82 nM | 38 nM | 142 to 144 °C |  |  |
